Measured values: patent US8741934B2, “Inhibitors of ion channels” (Pfizer Limited, priority 2007, dated 2014)

What was measured:
hSCN3A sodium channels = target: T1, hSCN3A sodium channels (Homo sapiens, UniProt Q9NY46); assay: hSCN3A electrophysiology, whole-cell patch-clamp or PatchXpress 7000, estimated IC-50 (Table B); assay type: cell-based; conditions: estimated IC-50; hSCN3A cells, whole-cell patch-clamp or PatchXpress 7000; read-out: SCN3A EIC-50
T1 construct: expressed in transfected cells
In short: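 Stably transfected HEK cells, whole-cell voltage clamp at 22-24° C, manual or PatchXpress 7000. Cells held at empirically determined inactivation V1/2; current evoked by 20 msec step to 0 mV after 8 sec prepulse to V1/2.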

[1] = assay type: in vivo, rat; conditions: in contrast to compounds I, II and III
Experimental: The bioanalysis of plasma samples from rats dosed with LC/MS/MS detection of sulfathiazole as measured against an internal standard. Extraction was performed on-line with a turbulent flow chromatography system (HTLC). The transfer from the HTLC to the analytical HPLC is automatic. The mass spectrometer was operated in API ionization mode with an electrospray interface between the analytical HPLC and the mass spectrometer. Multiple reaction monitoring (mrm) detection was used for each analyte on a triple quadrupole mass spectrometer.
2. Materials • HPLC grade reagents were used such as: • Water (Hydro Services Picosystem water filtration) • Methanol (Fisher Ultima) • Ammonium formate (Sigma), and • Formic acid (Sigma) • Rat plasma • sulfathiazole • internal standard B. Instrument Conditions • Mass spectrometer: • Positive ion, mrm detection at • m/z 256 to m/z 108 for ICA-000024 • m/z 342 to m/z 218 for ICA-18756 (internal standard) • 100 ms Dwell time • Cone voltage, capillary voltage and collision energy were optimized for each compound • Source Temperature: 125 C, Desolvation temperature: 325 C • Cone gas at 73 L/hr, and Desolvation gas at 740 L/hr C. Chromatography Conditions
1. Mobile Phases: • A: 98% water:2% methanol with • 4 mM ammonium formate, 0.1% formic acid • B: 98% methanol:2% water with • 4 mM ammonium formate, 0.1% formic acid
2. HTLC Turbulent Flow Quaternary Pump • Column: Cohesive Cyclone Turbo-Flow • Timetable:
3. Analytical Binary Pump • Column: Phenomenex Synergi Hydro-RP 4u 50 mm×2.1 mm • Timetable:
4. Injection Volume • 20 μL D. Preparation of Standards and Samples
Plasma standards and samples were prepared for injection according to the standard operating procedure, HTLC Plasma Analysis by LC/MS/MS.

Nav1.3 = Nav1.3 (Homo sapiens, UniProt Q9NY46); conditions: read-out: TTX IC-50; cited from earlier work
Nav1.6 = Nav1.6 (Homo sapiens, UniProt Q9UQD0); conditions: read-out: TTX IC-50; cited from earlier work
Nav1.8 = Nav1.8 (Homo sapiens, UniProt Q9Y5Y9); conditions: read-out: TTX IC-50; cited from earlier work
Nav1.9 = Nav1.9 (Homo sapiens, UniProt Q9UI33); conditions: read-out: TTX IC-50; cited from earlier work
Nav1.1 = Nav1.1 (Homo sapiens, UniProt P35498); conditions: read-out: TTX IC-50; cited from earlier work
Nav1.2 = Nav1.2 (Homo sapiens, UniProt Q99250); conditions: read-out: TTX IC-50; cited from earlier work

T1 sequence (Q9NY46 whole entry): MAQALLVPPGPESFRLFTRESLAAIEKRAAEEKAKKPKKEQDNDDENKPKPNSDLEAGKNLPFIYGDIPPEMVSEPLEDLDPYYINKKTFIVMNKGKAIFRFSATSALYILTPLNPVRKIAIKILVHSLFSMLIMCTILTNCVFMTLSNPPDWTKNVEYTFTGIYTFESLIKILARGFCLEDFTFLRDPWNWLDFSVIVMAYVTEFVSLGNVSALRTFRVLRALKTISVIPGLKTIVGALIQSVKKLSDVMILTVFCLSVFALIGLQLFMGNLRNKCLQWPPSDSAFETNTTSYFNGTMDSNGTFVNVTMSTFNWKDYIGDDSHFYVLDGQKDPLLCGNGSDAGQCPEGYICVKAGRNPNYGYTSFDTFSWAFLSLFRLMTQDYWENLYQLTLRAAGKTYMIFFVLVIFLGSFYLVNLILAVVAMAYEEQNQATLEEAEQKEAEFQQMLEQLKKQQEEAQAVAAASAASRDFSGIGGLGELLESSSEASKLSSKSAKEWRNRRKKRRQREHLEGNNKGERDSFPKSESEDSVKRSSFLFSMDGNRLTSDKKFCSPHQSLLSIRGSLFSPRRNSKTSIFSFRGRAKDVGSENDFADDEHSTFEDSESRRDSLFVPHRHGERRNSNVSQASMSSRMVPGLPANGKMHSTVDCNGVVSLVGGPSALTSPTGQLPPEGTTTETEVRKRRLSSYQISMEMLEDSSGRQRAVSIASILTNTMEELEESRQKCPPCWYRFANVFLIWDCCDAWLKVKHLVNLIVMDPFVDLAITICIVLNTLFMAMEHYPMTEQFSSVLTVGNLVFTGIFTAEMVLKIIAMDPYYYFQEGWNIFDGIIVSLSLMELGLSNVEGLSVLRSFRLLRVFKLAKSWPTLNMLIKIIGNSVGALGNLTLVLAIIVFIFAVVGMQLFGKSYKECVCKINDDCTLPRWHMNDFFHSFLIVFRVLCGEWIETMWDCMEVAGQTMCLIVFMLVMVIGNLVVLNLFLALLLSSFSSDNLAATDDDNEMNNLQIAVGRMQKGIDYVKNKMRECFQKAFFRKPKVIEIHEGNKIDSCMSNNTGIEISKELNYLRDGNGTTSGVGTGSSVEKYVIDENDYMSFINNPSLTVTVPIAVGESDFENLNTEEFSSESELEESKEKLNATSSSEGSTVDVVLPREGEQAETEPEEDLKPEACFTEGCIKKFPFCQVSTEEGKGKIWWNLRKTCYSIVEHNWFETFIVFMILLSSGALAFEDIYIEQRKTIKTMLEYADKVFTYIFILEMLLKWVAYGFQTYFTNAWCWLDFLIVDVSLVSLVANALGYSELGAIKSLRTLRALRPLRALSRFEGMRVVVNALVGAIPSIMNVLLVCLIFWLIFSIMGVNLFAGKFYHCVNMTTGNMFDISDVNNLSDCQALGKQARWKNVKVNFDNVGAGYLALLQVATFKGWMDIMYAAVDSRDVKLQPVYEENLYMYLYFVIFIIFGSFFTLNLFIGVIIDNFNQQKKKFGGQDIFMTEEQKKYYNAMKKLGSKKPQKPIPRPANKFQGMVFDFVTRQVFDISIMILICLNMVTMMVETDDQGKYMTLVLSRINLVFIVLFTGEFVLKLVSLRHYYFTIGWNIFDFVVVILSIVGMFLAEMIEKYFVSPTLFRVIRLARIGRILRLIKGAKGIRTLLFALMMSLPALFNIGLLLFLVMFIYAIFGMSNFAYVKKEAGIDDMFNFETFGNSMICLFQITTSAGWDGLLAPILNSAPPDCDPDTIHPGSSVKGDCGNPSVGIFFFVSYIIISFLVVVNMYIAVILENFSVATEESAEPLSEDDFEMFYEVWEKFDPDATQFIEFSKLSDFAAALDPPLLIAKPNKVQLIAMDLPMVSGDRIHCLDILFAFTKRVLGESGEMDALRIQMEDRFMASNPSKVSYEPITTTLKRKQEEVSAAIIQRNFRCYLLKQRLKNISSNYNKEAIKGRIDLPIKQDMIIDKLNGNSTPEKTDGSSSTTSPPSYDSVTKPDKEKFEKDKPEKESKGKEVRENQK
Chain of Nav1.9 (Q9UI33 whole entry, looked up): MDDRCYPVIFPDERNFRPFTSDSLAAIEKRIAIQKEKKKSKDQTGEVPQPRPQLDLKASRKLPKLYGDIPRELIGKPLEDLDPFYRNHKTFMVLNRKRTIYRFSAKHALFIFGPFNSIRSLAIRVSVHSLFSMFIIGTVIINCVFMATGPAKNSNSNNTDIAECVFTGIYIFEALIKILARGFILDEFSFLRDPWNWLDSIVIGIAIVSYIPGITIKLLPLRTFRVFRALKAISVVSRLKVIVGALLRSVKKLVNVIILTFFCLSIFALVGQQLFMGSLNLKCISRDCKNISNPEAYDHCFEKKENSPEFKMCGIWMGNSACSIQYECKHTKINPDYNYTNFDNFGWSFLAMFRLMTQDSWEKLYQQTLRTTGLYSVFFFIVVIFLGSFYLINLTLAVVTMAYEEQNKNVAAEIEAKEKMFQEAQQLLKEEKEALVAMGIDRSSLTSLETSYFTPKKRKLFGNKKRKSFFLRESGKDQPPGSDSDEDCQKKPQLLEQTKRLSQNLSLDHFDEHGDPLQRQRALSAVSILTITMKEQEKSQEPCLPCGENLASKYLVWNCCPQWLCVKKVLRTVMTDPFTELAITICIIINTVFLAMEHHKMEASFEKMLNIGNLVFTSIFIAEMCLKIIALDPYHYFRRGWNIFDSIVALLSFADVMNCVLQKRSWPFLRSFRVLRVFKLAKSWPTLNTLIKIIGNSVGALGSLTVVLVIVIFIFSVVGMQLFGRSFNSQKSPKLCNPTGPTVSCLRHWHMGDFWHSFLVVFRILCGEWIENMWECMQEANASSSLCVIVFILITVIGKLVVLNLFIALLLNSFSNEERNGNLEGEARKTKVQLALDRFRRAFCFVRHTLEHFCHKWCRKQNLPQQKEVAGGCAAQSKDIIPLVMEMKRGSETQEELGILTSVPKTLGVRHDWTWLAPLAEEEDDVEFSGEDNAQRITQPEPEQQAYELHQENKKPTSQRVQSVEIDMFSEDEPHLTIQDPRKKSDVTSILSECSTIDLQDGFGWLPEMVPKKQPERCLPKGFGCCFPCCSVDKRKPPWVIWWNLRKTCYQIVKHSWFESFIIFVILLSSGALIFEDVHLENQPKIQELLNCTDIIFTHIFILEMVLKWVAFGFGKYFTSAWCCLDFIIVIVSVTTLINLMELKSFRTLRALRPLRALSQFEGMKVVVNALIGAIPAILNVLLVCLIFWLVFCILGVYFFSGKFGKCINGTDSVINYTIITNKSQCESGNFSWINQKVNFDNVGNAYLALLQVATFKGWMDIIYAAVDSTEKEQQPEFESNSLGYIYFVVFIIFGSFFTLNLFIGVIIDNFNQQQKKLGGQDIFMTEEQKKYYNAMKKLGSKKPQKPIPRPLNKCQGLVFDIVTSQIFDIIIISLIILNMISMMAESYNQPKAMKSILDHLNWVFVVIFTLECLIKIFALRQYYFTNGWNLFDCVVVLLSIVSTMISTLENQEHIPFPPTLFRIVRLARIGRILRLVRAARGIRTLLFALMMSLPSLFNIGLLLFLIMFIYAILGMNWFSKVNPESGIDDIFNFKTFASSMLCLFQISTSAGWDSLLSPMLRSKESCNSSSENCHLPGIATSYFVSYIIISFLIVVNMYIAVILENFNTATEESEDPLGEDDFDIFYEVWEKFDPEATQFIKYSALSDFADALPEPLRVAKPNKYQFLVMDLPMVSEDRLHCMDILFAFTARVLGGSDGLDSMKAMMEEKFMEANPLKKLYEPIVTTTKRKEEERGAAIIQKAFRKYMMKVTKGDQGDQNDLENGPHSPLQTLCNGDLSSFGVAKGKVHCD
Chain of Nav1.3 (Q9NY46 whole entry, looked up): as the sequence (Q9NY46 whole entry) above

In the case of `O=C(NCc1ccc(Cl)cc1)c1ccc(S(=O)(=O)Nc2nccs2)cc1` [Example 100, N-(4-chlorobenzyl)-4-[(1,3-thiazol-2-ylamino)sulfonyl]benzamide], the IC50 (hSCN3A sodium channels) is reported as 430 nM and the “metabolism to the aniline containing sulfathiazole” value (shortened to “metabolism”) [1] is reported as “do not metabolize to form the aniline containing sulfathiazole”.

With `O=C(NCCOc1ccc(Cl)cc1)c1ccc(S(=O)(=O)Nc2nccs2)cc1` [Example 186, N-[2-(4-chlorophenoxy)ethyl]-4-[(1,3-thiazol-2-ylamino)sulfonyl]benzamide] the IC50 (hSCN3A sodium channels) was 420 nM and the “metabolism” value [1] was “do not metabolize to form the aniline containing sulfathiazole”.

Work on `O=C(NCc1ccc(Cl)c(Cl)c1)c1ccc(S(=O)(=O)Nc2nccs2)cc1` [Example 388, N-(3,4-dichlorobenzyl)-4-[(1,3-thiazol-2-ylamino)sulfonyl]benzamide] yielded an IC50 (hSCN3A sodium channels) of 110 nM.

In the case of `CC(C)(C)CCNC(=O)c1ccc(S(=O)(=O)Nc2ncc(Cl)s2)c(F)c1` [Example 389, 4-{[(5-Chloro-1,3-thiazol-2-yl)amino]sulfonyl}-N-(3,3-dimethylbutyl)-3-fluorobenzamide], the IC50 (hSCN3A sodium channels) is reported as 610 nM.

With `O=C(NCc1ccc(C(F)(F)F)cc1)c1ccc(S(=O)(=O)Nc2nc[nH]n2)cc1` [Example 390, 4-[(1H-1,2,4-triazol-3-ylamino)sulfonyl]-N-[4-(trifluoromethyl)benzyl]benzamide] the IC50 (hSCN3A sodium channels) was 9950 nM.

Work on `Cc1csc(NS(=O)(=O)c2ccc(C(=O)NCc3ccc(C(F)(F)F)cc3)cc2)n1` [Example 391, 4-{[(4-methyl-1,3-thiazol-2-yl)amino]sulfonyl}-N-[4-(trifluoromethyl)benzyl] benzamide] yielded an IC50 (hSCN3A sodium channels) of 1350 nM.

`O=C(NCc1cccc(C(F)(F)F)c1F)c1ccc(S(=O)(=O)Nc2nccs2)cc1` [Example 392, N-[2-fluoro-3-(trifluoromethyl)benzyl]-4-[(1,3-thiazol-2-ylamino)sulfonyl]benzamide] showed an IC50 (hSCN3A sodium channels) of 230 nM.

Compound `O=C(NCc1ccc(OC(F)(F)F)c(F)c1)c1ccc(S(=O)(=O)Nc2nccs2)cc1` [Example 394, N-[3-fluoro-4-(trifluoromethoxy)benzyl]-4-[(1,3-thiazol-2-ylamino)sulfonyl]benzamide] has an IC50 (hSCN3A sodium channels) of 90 nM.

In the case of `O=C(NCc1ccc(Cl)c(C(F)(F)F)c1)c1ccc(S(=O)(=O)Nc2nccs2)cc1` [Example 395, N-[4-chloro-3-(trifluoromethyl)benzyl]-4-[(1,3-thiazol-2-ylamino)sulfonyl]benzamide], the IC50 (hSCN3A sodium channels) is reported as 30 nM.

With `O=C(NCc1ccc(C(F)(F)F)c(Cl)c1)c1ccc(S(=O)(=O)Nc2nccs2)cc1` [Example 396, N-[3-chloro-4-(trifluoromethyl)benzyl]-4-[(1,3-thiazol-2-ylamino)sulfonyl] benzamide] the IC50 (hSCN3A sodium channels) was 30 nM.

In the case of `O=C(NCc1ccc(C(F)(F)F)cc1F)c1ccc(S(=O)(=O)Nc2nccs2)cc1` [Example 397, N-[2-fluoro-4-(trifluoromethyl)benzyl]-4-[(1,3-thiazol-2-ylamino)sulfonyl] benzamide], the IC50 (hSCN3A sodium channels) is reported as 220 nM.

Compound `O=C(NCc1cccc(C(F)(F)F)c1)c1ccc(S(=O)(=O)Nc2nccs2)cc1` [Example 398, 4-[(1,3-Thiazol-2-ylamino)sulfonyl]-N-[3-(trifluoromethyl)benzyl] benzamide] has an IC50 (hSCN3A sodium channels) of 260 nM.

For `O=C(NCc1ccc(-c2ccccc2)cc1)c1ccc(S(=O)(=O)Nc2nccs2)cc1` [Example 399, N-(biphenyl-4-ylmethyl)-4-[(1,3-thiazol-2-ylamino)sulfonyl] benzamide], the IC50 (hSCN3A sodium channels) was 30 nM.

Compound `Cc1ccc(CNC(=O)c2ccc(S(=O)(=O)Nc3nccs3)cc2)cc1Cl` [Example 400, N-(3-chloro-4-methylbenzyl)-4-[(1,3-thiazol-2-ylamino)sulfonyl] benzamide] has an IC50 (hSCN3A sodium channels) of 70 nM.

Compound `O=C(NCc1ccc(F)c(Cl)c1)c1ccc(S(=O)(=O)Nc2nccs2)cc1` [Example 401, N-(3-chloro-4-fluorobenzyl)-4-[(1,3-thiazol-2-ylamino)sulfonyl] benzamide] has an IC50 (hSCN3A sodium channels) of 170 nM.

In the case of `O=C(NCc1ccc(OC(F)(F)F)cc1)c1ccc(S(=O)(=O)Nc2nccs2)cc1` [Example 402, 4-[(1,3-Thiazol-2-ylamino)sulfonyl]-N-[4-(trifluoromethoxy)benzyl]benzamide], the IC50 (hSCN3A sodium channels) is reported as 190 nM.

Compound `COc1cc(OC(F)(F)F)ccc1CNC(=O)c1ccc(S(=O)(=O)Nc2nccs2)cc1` [Example 404, N-[2-methoxy-4-(trifluoromethoxy)benzyl]-4-[(1,3-thiazol-2-ylamino)sulfonyl] benzamide] has an IC50 (hSCN3A sodium channels) of 140 nM.

For `COc1ccc(CNC(=O)c2ccc(S(=O)(=O)Nc3nccs3)cc2)cc1Cl` [Example 405, N-(3-chloro-4-methoxybenzyl)-4-[(1,3-thiazol-2-ylamino)sulfonyl] benzamide], the IC50 (hSCN3A sodium channels) was 60 nM.

Work on `O=C(NCc1ccc(Cl)cc1C(F)(F)F)c1ccc(S(=O)(=O)Nc2nccs2)cc1` [Example 406, N-[4-chloro-2-(trifluoromethyl)benzyl]-4-[(1,3-thiazol-2-ylamino)sulfonyl] benzamide] yielded an IC50 (hSCN3A sodium channels) of 260 nM.

Work on `O=C(NCc1ccc(Cl)nc1)c1ccc(S(=O)(=O)Nc2nccs2)cc1` [Example 407, N-[(6-chloropyridin-3-yl)methyl]-4-[(1,3-thiazol-2-ylamino)sulfonyl] benzamide] yielded an IC50 (hSCN3A sodium channels) of 1780 nM.

`O=C(NCc1ccc(C(F)(F)F)nc1)c1ccc(S(=O)(=O)Nc2nccs2)cc1` [Example 408, 4-[(1,3-Thiazol-2-ylamino)sulfonyl]-N-{[6-(trifluoromethyl)pyridin-3-yl]methyl}benzamide] gave an IC50 (hSCN3A sodium channels) of 1090 nM.

For `O=C(NCc1ccc(Oc2ccccc2)cc1)c1ccc(S(=O)(=O)Nc2nccs2)cc1` [Example 409, N-(4-phenoxybenzyl)-4-[(1,3-thiazol-2-ylamino)sulfonyl] benzamide], the IC50 (hSCN3A sodium channels) was 40 nM.

For `O=C(NCc1cccc(-c2ccccc2)c1)c1ccc(S(=O)(=O)Nc2nccs2)cc1` [Example 411, N-(biphenyl-3-ylmethyl)-4-[(1,3-thiazol-2-ylamino)sulfonyl] benzamide], the IC50 (hSCN3A sodium channels) was 120 nM.

Work on `COc1ccc(CNC(=O)c2ccc(S(=O)(=O)Nc3nccs3)cc2)cc1C(F)(F)F` [Example 412, N-[4-methoxy-3-(trifluoromethyl)benzyl]-4-[(1,3-thiazol-2-ylamino)sulfonyl] benzamide] yielded an IC50 (hSCN3A sodium channels) of 270 nM.

`O=C(NCc1ccc(Cl)cc1Cl)c1ccc(S(=O)(=O)Nc2nccs2)cc1` [Example 413, N-(24-dichlorobenzyl)-4-[(1,3-thiazol-2-ylamino)sulfonyl] benzamide] showed an IC50 (hSCN3A sodium channels) of 180 nM.

`Cc1cc(Cl)ccc1CNC(=O)c1ccc(S(=O)(=O)Nc2nccs2)cc1` [Example 414, N-(4-chloro-2-methylbenzyl)-4-[(1,3-thiazol-2-ylamino)sulfonyl] benzamide] gave an IC50 (hSCN3A sodium channels) of 240 nM.

For `O=C(NCc1ccccc1-c1ccccc1)c1ccc(S(=O)(=O)Nc2nccs2)cc1` [Example 415, N-(biphenyl-2-ylmethyl)-4-[(1,3-thiazol-2-ylamino)sulfonyl] benzamide], the IC50 (hSCN3A sodium channels) was 380 nM.

For `N#Cc1ccc(CNC(=O)c2ccc(S(=O)(=O)Nc3nccs3)cc2)cc1` [Example 416, N-(4-cyanobenzyl)-4-[(1,3-thiazol-2-ylamino)sulfonyl] benzamide], the IC50 (hSCN3A sodium channels) was 860 nM.

`O=C(NCc1ccc(C(F)(F)F)cc1)c1ccc(S(=O)(=O)Nc2nccs2)nc1` [Example 417, 6-[(1,3-Thiazol-2-ylamino)sulfonyl]-N-[4-(trifluoromethyl)benzyl]nicotinamide] gave an IC50 (hSCN3A sodium channels) of 210 nM.

For `CC(C)(C)CCNC(=O)c1ccc(S(=O)(=O)Nc2nccs2)cc1` [Example 418, N-(3,3-dimethylbutyl)-4-[(1,3-thiazol-2-ylamino)sulfonyl]benzamide], the IC50 (hSCN3A sodium channels) was 2740 nM and the “metabolism” value [1] was “do not metabolize to form the aniline containing sulfathiazole”.

For `NC1=N[C@H](O)[C@H]2[C@H]3O[C@]4(O)O[C@@H]([C@@H](O)[C@@]2(N1)[C@@H]4O)[C@]3(O)CO` [TTX, tetrodotoxin], the IC50 (Nav1.3) is listed as 15 nM, the IC50 (Nav1.6) is listed as 6 nM and the IC50 (Nav1.8) is listed as 50000 nM. The IC50 (Nav1.9) was 1000 nM, the IC50 (Nav1.1) was 10 nM and the IC50 (Nav1.2) was 10 nM.
